Our source for the IC50 values is patent US9062071B2, “Substituted piperidines as HDM2 inhibitors” (Merck Sharp & Dohme Corp, priority 2011, dated 2015).

This test deals with HDM2 protein (Homo sapiens, UniProt Q00987). In words: fluorescence polarization screening assay (FP IC50). It is filed as binding. Conditions: class symbols. How it is done: The compounds were evaluated to determine activity at the HDM2 protein by known methods such as the fluorescence polarization screening assay that measures the inhibitory concentration that achieves 50% of maximal activity (FP IC50) and the dissociation constant for inhibitor binding (FP Ki). [Zhang et al., J. Analytical Biochemistry 331: 138-146 (2004)].
A general note: In fluorescence polarisation assays a small probe gives low polarisation when free and higher when bound to something large.

The term IC50 denotes the point on the concentration scale where inhibition reaches its midpoint. The low end stands for inhibition by little substance, the high end for a need for much substance.

Sequence of HDM2 protein (Q00987 whole entry): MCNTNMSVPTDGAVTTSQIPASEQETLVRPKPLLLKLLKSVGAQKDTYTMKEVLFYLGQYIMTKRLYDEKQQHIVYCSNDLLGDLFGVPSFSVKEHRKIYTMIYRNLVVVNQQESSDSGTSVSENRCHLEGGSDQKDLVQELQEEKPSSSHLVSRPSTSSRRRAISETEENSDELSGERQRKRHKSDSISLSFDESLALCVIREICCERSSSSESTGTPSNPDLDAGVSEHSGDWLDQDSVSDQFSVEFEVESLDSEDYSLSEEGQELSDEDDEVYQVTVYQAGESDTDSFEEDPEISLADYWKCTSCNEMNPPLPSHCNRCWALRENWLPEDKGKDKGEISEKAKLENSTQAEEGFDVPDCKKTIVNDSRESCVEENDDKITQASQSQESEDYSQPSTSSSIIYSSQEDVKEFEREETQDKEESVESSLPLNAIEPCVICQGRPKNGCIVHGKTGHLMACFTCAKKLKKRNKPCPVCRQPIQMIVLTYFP

In turn, `CCC[C@H]1N(C(=O)c2ncccc2C(F)(F)F)CCC[C@@]1(Oc1csc(C(F)(F)F)c1)C(=O)N1CCc2cc(Cl)ccc2C1C#N` (stereo partly drawn) [Compound A78, 6-chloro-2-{[(2R,3S)-2-propyl-1-{[3-(trifluoromethyl)pyridin-2-yl]carbonyl}-3-{[5-(trifluoromethyl)thiophen-3-yl]oxy}piperidin-3-yl]carbonyl}-1,2,3,4-tetrahydroisoquinoline-1-carbonitrile] returned an IC50 of 101 to 20000 nM.

`CCC[C@H]1N(C(=O)c2ncccc2C(F)(F)F)CCC[C@@]1(Oc1csc(C(F)(F)F)c1)C(=O)N1CCc2sc(Cl)cc2C1C(=O)O` (stereo partly drawn) [Compound A14, 2-chloro-5-{[(2R,3S)-2-propyl-1-{[3-(trifluoromethyl)pyridin-2-yl]carbonyl}-3-{[5-(trifluoromethyl)thiophen-3-yl]oxy}piperidin-3-yl]carbonyl}-4,5,6,7-tetrahydrothieno[3,2-c]pyridine-4-carboxylic acid] registered an IC50 of 1 to 100 nM.

In turn, `CCC[C@H]1N(C(=O)c2ncccc2C(F)(F)F)CCC[C@@]1(Oc1csc(C(F)(F)F)c1)C(=O)N1Cc2cc(F)ccc2CC1C(=O)O` (stereo in doubt) [Compound A126, (3S)-7-fluoro-2-{[(2R,3S)-2-propyl-1-{[3-(trifluoromethyl)pyridin-2-yl]carbonyl}-3-{[5-(trifluoromethyl)thiophen-3-yl]oxy}piperidin-3-yl]carbonyl}-1,2,3,4-tetrahydroisoquinoline-3-carboxylic acid] registered an IC50 of 1 to 100 nM.

As for `CCC[C@H]1N(C(=O)c2ncccc2C(F)(F)F)CCC[C@@]1(Oc1csc(C(F)(F)F)c1)C(=O)N1CCc2cc(Cl)ccc2C1CO` (stereo partly drawn) [Compound A103, (6-chloro-2-{[(2R,3S)-2-propyl-1-{[3-(trifluoromethyl)pyridin-2-yl]carbonyl}-3-{[5-(trifluoromethyl)thiophen-3-yl]oxy}piperidin-3-yl]carbonyl}-1,2,3,4-tetrahydroisoquinolin-1-yl)methanol], the IC50 was in the range of 101 to 20000 nM.

`CCC[C@H]1N(C(=O)c2ncccc2C(F)(F)F)CCC[C@@]1(Oc1csc(C(F)(F)F)c1)C(=O)N1CCc2ccc(Cl)cc2C1` [Compound A139, 7-chloro-2-{[(2R,3S)-2-propyl-1-{[3-(trifluoromethyl)pyridin-2-yl]carbonyl}-3-{[5-(trifluoromethyl)thiophen-3-yl]oxy}piperidin-3-yl]carbonyl}-1,2,3,4-tetrahydroisoquinoline]: the IC50 was 101 to 20000 nM.

In the case of `CCC[C@H]1N(C(=O)c2ncccc2C(F)(F)F)CCC[C@@]1(Oc1csc(C(F)(F)F)c1)C(=O)N1CCc2sc(C(=O)O)cc2C1` [Compound A10, 5-{[(2R,3S)-2-propyl-1-{[3-(trifluoromethyl)pyridin-2-yl]carbonyl}-3-{[5-(trifluoromethyl)thiophen-3-yl]oxy}piperidin-3-yl]carbonyl}-4,5,6,7-tetrahydrothieno[3,2-c]pyridine-2-carboxylic acid], the IC50 was 101 to 20000 nM.

On to `CCC[C@H]1N(C(=O)c2ncccc2C(F)(F)F)CCC[C@@]1(Oc1csc(C(F)(F)F)c1)C(=O)N1CCc2cc(F)ccc2C1CCCCC(=O)O` (stereo partly drawn) [Compound A43, 5-(6-fluoro-2-{[(2R,3S)-2-propyl-1-{[3-(trifluoromethyl)pyridin-2-yl]carbonyl}-3-{[5-(trifluoromethyl)thiophen-3-yl]oxy}piperidin-3-yl]carbonyl}-1,2,3,4-tetrahydroisoquinolin-1-yl)pentanoic acid], for which the IC50 fell in the range of 1 to 100 nM.

In the case of `CCC[C@H]1N(C(=O)c2ncccc2C(F)(F)F)CCC[C@@]1(Oc1csc(C(F)(F)F)c1)C(=O)N1CCc2cc(C#N)ccc2C1` [Compound A46], the IC50 lay in the range of 101 to 20000 nM.

`CCC[C@H]1N(C(=O)c2ncccc2C(F)(F)F)CCC[C@@]1(Oc1csc(C(F)(F)F)c1)C(=O)N1Cc2ccc(Cl)cc2C[C@@H]1C(=O)O` [Compound A129, (3R)-6-chloro-2-{[(2R,3S)-2-propyl-1-{[3-(trifluoromethyl)pyridin-2-yl]carbonyl}-3-{[5-(trifluoromethyl)thiophen-3-yl]oxy}piperidin-3-yl]carbonyl}-1,2,3,4-tetrahydroisoquinoline-3-carboxylic acid]: the IC50 is 1 to 100 nM.

Turning to `CCC[C@H]1N(C(=O)c2ncccc2C(F)(F)F)CCC[C@@]1(Oc1csc(C(F)(F)F)c1)C(=O)N1CCc2cc(F)ccc2C1CCC(=O)O` (stereo partly drawn) [Compound A44, 3-(6-fluoro-2-{[(2R,3S)-2-propyl-1-{[3-(trifluoromethyl)pyridin-2-yl]carbonyl}-3-{[5-(trifluoromethyl)thiophen-3-yl]oxy}piperidin-3-yl]carbonyl}-1,2,3,4-tetrahydroisoquinolin-1-yl)propanoic acid], the IC50 was in the range of 1 to 100 nM.

The compound `CCC[C@H]1N(C(=O)c2ncccc2C(F)(F)F)CCC[C@@]1(Oc1csc(C(F)(F)F)c1)C(=O)N1Cc2ccccc2C(C(=O)O)C1` (stereo partly drawn) [Compound A154, 2-{[(2R,3S)-2-propyl-1-{[3-(trifluoromethyl)pyridin-2-yl]carbonyl}-3-{[5-(trifluoromethyl)thiophen-3-yl]oxy}piperidin-3-yl]carbonyl}-1,2,3,4-tetrahydroisoquinoline-4-carboxylic acid] came in with an IC50 of 101 to 20000 nM.

Take `CCC[C@H]1N(C(=O)c2ncccc2C(F)(F)F)CCC[C@@]1(Oc1csc(C(F)(F)F)c1)C(=O)N1Cc2cc(F)c(F)cc2C[C@H]1CCC(=O)O` [Compound A157, 3-[(3R)-6,7-difluoro-2-{[(2R,3S)-2-propyl-1-{[3-(trifluoromethyl)pyridin-2-yl]carbonyl}-3-{[5-(trifluoromethyl)thiophen-3-yl]oxy}piperidin-3-yl]carbonyl}-1,2,3,4-tetrahydroisoquinolin-3-yl]propanoic acid]: the IC50 lay in the range of 1 to 100 nM.

Take `CCC[C@H]1N(C(=O)c2ncccc2C(F)(F)F)CCC[C@@]1(Oc1csc(C(F)(F)F)c1)C(=O)N1Cc2ccc(F)cc2C[C@@H]1C(=O)N1CCC(O)CC1` [Compound A149, 1-{[(3R)-6-fluoro-2-{[(2R,3S)-2-propyl-1-{[3-(trifluoromethyl)pyridin-2-yl]carbonyl}-3-{[5-(trifluoromethyl)thiophen-3-yl]oxy}piperidin-3-yl]carbonyl}-1,2,3,4-tetrahydroisoquinolin-3-yl]carbonyl}piperidin-4-ol]: the IC50 was 1 to 100 nM.

In turn, `CCC[C@H]1N(C(=O)c2ncccc2C(F)(F)F)CCC[C@@]1(Oc1csc(C(F)(F)F)c1)C(=O)N1Cc2ccc(Cl)cc2C[C@@H]1CCC(=O)NS(C)(=O)=O` [Compound A148, 3-[(3S)-6-chloro-2-{[(2R,3S)-2-propyl-1-{[3-(trifluoromethyl)pyridin-2-yl]carbonyl}-3-{[5-(trifluoromethyl)thiophen-3-yl]oxy}piperidin-3-yl]carbonyl}-1,2,3,4-tetrahydroisoquinolin-3-yl]-N-(methylsulfonyl) propanamide] displayed an IC50 of 1 to 100 nM.

`CCC[C@H]1N(C(=O)c2ncccc2C(F)(F)F)CCC[C@@]1(Oc1csc(C(F)(F)F)c1)C(=O)N1Cc2ccc(Br)cc2C[C@@H]1C(=O)O` [Compound A134, (3R)-6-bromo-2-{[(2R,3S)-2-propyl-1-{[3-(trifluoromethyl)pyridin-2-yl]carbonyl}-3-{[5-(trifluoromethyl)thiophen-3-yl]oxy}piperidin-3-yl]carbonyl}-1,2,3,4-tetrahydroisoquinoline-3-carboxylic acid] displayed an IC50 of 1 to 100 nM.

`CCC[C@H]1N(C(=O)c2ncccc2C(F)(F)F)CCC[C@@]1(Oc1csc(C(F)(F)F)c1)C(=O)N1CCc2cc(Br)ccc2C1CC(=O)O` (stereo partly drawn) [Compound A72, (6-bromo-2-{[(2R,3S)-2-propyl-1-{[3-(trifluoromethyl)pyridin-2-yl]carbonyl}-3-{[5-(trifluoromethyl)thiophen-3-yl]oxy}piperidin-3-yl]carbonyl}-1,2,3,4-tetrahydroisoquinolin-1-yl)acetic acid]: the IC50 fell in the range of 1 to 100 nM.

`CCC[C@H]1N(C(=O)c2ncccc2C(F)(F)F)CCC[C@@]1(Oc1csc(C(F)(F)F)c1)C(=O)N1CCc2sc(Cl)cc2C1C(=O)NC` (stereo partly drawn) [Compound A34, 2-chloro-N-methyl-5-{[(2R,3S)-2-propyl-1-{[3-(trifluoromethyl)pyridin-2-yl]carbonyl}-3-{[5-(trifluoromethyl)thiophen-3-yl]oxy}piperidin-3-yl]carbonyl}-4,5,6,7-tetrahydrothieno[3,2-c]pyridine-4-carboxamide] displayed an IC50 of 101 to 20000 nM.

Turning to `CCC[C@H]1N(C(=O)c2ncccc2C(F)(F)F)CCC[C@@]1(Oc1csc(C(F)(F)F)c1)C(=O)N1Cc2ccc(Cl)cc2C[C@@H]1CCCN1CCOCC1` [Compound A155, (3S)-6-chloro-3-(3-morpholin-4-ylpropyl)-2-{[(2R,3S)-2-propyl-1-{[3-(trifluoromethyl)pyridin-2-yl]carbonyl}-3-{[5-(trifluoromethyl)thiophen-3-yl]oxy}piperidin-3-yl]carbonyl}-1,2,3,4-tetrahydroisoquinoline], the IC50 was 1 to 100 nM.

The compound `CCC[C@H]1N(C(=O)c2ncccc2C(F)(F)F)CCC[C@@]1(Oc1csc(C(F)(F)F)c1)C(=O)N1Cc2ccc(Cl)cc2C[C@@H]1CN(C)C(=O)CC` [Compound A152, N-{[(3R)-6-chloro-2-{[(2R,3S)-2-propyl-1-{[3-(trifluoromethyl)pyridin-2-yl]carbonyl}-3-{[5-(trifluoromethyl)thiophen-3-yl]oxy}piperidin-3-yl]carbonyl}-1,2,3,4-tetrahydroisoquinolin-3-yl]methyl}-N-methylpropanamide] yielded an IC50 of 1 to 100 nM.

The compound `CCC[C@H]1N(C(=O)c2ncccc2C(F)(F)F)CCC[C@@]1(Oc1csc(C(F)(F)F)c1)C(=O)N1CCc2cc(Cl)ccc2C1COCC(=O)O` (stereo partly drawn) [Compound A181, [(6-chloro-2-{[(2R,3S)-2-propyl-1-{[3-(trifluoromethyl)pyridin-2-yl]carbonyl}-3-{[5-(trifluoromethyl)thiophen-3-yl]oxy}piperidin-3-yl]carbonyl}-1,2,3,4-tetrahydroisoquinolin-1-yl)methoxy]acetic acid] showed an IC50 of 1 to 100 nM.
